From PubChem BioAssay AID328 (DTP/NCI, 2004)
Inconclusive results and toxic doses are left out.

System: BDF1 mice, P388 leukemia ip, median survival T/C
Experiment: NCI In Vivo Anticancer Drug Screen. Data for tumor model P388 Leukemia (intraperitoneal) in B6D2F1 (BDF1) mice
Settings: endpoint: median survival time, higher = longer survival
Procedure, shortened: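 In tumour-bearing mice, survival after compound treatment is set against the vehicle group and given as a quotient.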

[1] = dose: 50.0 mg/kg/injection, schedule: Q01DX009 (ip), vehicle: saline with Tween-80
[2] = dose: 100.0 mg/kg/injection, schedule: Q01DX009 (ip), vehicle: saline with Tween-80
[3] = dose: 200.0 mg/kg/injection, schedule: Q01DX009 (ip), vehicle: saline with Tween-80
[4] = dose: 50.0 mg/kg/injection, schedule: Q01DX009 (ip), vehicle: saline
[5] = dose: 100.0 mg/kg/injection, schedule: Q01DX009 (ip), vehicle: saline

With `C=CCCCCCCCCC(=O)NCCCN1CCOCC1` the T/C (dose: 25.0 mg/kg/injection, schedule: Q01DX009 (ip), vehicle: saline with Tween-80) was 100 % of control, the T/C [1] was 109 % of control and the T/C [2] was 100 % of control.

With `S=C(Nc1ccccc1)N(C1CCCCC1)C1CCCCC1` the T/C (dose: 100.0 mg/kg/injection, schedule: Q01DX001 (ip), vehicle: saline with Tween-80) was 100 % of control, the T/C (dose: 200.0 mg/kg/injection, schedule: Q01DX001 (ip), vehicle: saline with Tween-80) was 103 % of control and the T/C [3] was 155 % of control. The T/C (dose: 400.0 mg/kg/injection, schedule: Q01DX001 (ip), vehicle: saline with Tween-80) was 103 % of control.

In the case of `O=[n+]1ccn2ccccc2c1`, the T/C (dose: 25.0 mg/kg/injection, schedule: Q01DX009 (ip), vehicle: saline) is reported as 95 % of control, the T/C [4] is reported as 114 % of control and the T/C (dose: 65.0 mg/kg/injection, schedule: Q01DX009 (ip), vehicle: saline) is reported as 95 % of control. For the same compound, the T/C (dose: 75.0 mg/kg/injection, schedule: Q04DX003 (ip), vehicle: saline) was 100 % of control, the T/C [5] was 108 % of control and the T/C (dose: 150.0 mg/kg/injection, schedule: Q04DX003 (ip), vehicle: saline) was 90 % of control.

In the case of `Nc1c(SSc2ccc3ccccc3c2N)ccc2ccccc12`, the T/C (dose: 6.25 mg/kg/injection, schedule: Q01DX001 (ip), vehicle: Klucel (hydroxypropylcellulose) (HPC)) is reported as 109 % of control, the T/C (dose: 12.5 mg/kg/injection, schedule: Q01DX001 (ip), vehicle: Klucel (hydroxypropylcellulose) (HPC)) is reported as 109 % of control and the T/C (dose: 25.0 mg/kg/injection, schedule: Q01DX001 (ip), vehicle: Klucel (hydroxypropylcellulose) (HPC)) is reported as 116 % of control.

With `O=CC(C=O)[N+](=O)[O-]` the T/C (dose: 100.0 mg/kg/injection, schedule: Q01DX009 (ip), vehicle: Klucel (hydroxypropylcellulose) (HPC)) was 91 % of control, the T/C (dose: 200.0 mg/kg/injection, schedule: Q01DX009 (ip), vehicle: Klucel (hydroxypropylcellulose) (HPC)) was 95 % of control and the T/C (dose: 400.0 mg/kg/injection, schedule: Q01DX009 (ip), vehicle: Klucel (hydroxypropylcellulose) (HPC)) was 108 % of control.

`O=C1NC(c2cccc3c2OCO3)N=C2Oc3ccccc3C=C12` (centres undefined) was tested, and the T/C [1] was 98 % of control, the T/C [2] was 93 % of control and the T/C [3] was 93 % of control.

With `CC1=CC(=O)NC1O` (centres undefined) the T/C (dose: 2.5 mg/kg/injection, schedule: Q01DX010 (ip), vehicle: saline) was 87 % of control, the T/C (dose: 10.0 mg/kg/injection, schedule: Q01DX010 (ip), vehicle: saline) was 91 % of control and the T/C (dose: 15.0 mg/kg/injection, schedule: Q01DX010 (ip), vehicle: saline) was 100 % of control.

With `c1ccc2c(NCCCCCCCCNc3c4ccccc4nc4ccccc34)c3ccccc3nc2c1` the T/C (dose: 2.5 mg/kg/injection, schedule: Q01DX009 (ip), vehicle: Klucel (hydroxypropylcellulose) (HPC)) was 112 % of control and the T/C (dose: 20.0 mg/kg/injection, schedule: Q01DX009 (ip), vehicle: Klucel (hydroxypropylcellulose) (HPC)) was 100 % of control.

`O=C(c1ccccc1)N1CCC2OC2C1` (centres undefined) was tested, and the T/C [4] was 94 % of control, the T/C [5] was 109 % of control and the T/C (dose: 200.0 mg/kg/injection, schedule: Q01DX009 (ip), vehicle: saline) was 100 % of control.

With `C/C=C1/C(=O)O[C@]23C=C[C@@H]4C(C(=O)OC)=CO[C@H](O[C@@H]12)[C@@H]43` the T/C (dose: 0.27 mg/kg/injection, schedule: Q01DX009 (ip), vehicle: saline) was 110 % of control, the T/C (dose: 0.55 mg/kg/injection, schedule: Q01DX009 (ip), vehicle: saline) was 110 % of control and the T/C (dose: 1.1 mg/kg/injection, schedule: Q01DX009 (ip), vehicle: saline) was 110 % of control. For the same compound, the T/C (dose: 2.2 mg/kg/injection, schedule: Q01DX009 (ip), vehicle: saline) was 110 % of control, the T/C (dose: 165.0 micrograms/kg/injection, schedule: Q01DX009 (ip), vehicle: Klucel (hydroxypropylcellulose) (HPC)) was 115 % of control and the T/C (dose: 310.0 micrograms/kg/injection, schedule: Q01DX009 (ip), vehicle: Klucel (hydroxypropylcellulose) (HPC)) was 115 % of control. The T/C (dose: 1250.0 micrograms/kg/injection, schedule: Q01DX009 (ip), vehicle: Klucel (hydroxypropylcellulose) (HPC)) was 115 % of control.

`CS(=O)(=O)OCC(O)C(O)C(O)C(O)COS(C)(=O)=O` (centres undefined) was tested, and the T/C (dose: 25.0 mg/kg/injection, schedule: Q01DX010 (ip), vehicle: saline) was 108 % of control and the T/C (dose: 50.0 mg/kg/injection, schedule: Q01DX010 (ip), vehicle: saline) was 116 % of control.
